Values quoted from earlier work, collected in patent US11826376B2, “Methods of treating heart failure with preserved ejection fraction employing dapagliflozin and compositions comprising the same” (AstraZeneca AB, priority 2018, dated 2023).

Legend:
human renal SGLT2 = human renal SGLT2 (Homo sapiens, UniProt P31639); details: background statement, no data
Sequence of human renal SGLT2 (P31639 whole entry): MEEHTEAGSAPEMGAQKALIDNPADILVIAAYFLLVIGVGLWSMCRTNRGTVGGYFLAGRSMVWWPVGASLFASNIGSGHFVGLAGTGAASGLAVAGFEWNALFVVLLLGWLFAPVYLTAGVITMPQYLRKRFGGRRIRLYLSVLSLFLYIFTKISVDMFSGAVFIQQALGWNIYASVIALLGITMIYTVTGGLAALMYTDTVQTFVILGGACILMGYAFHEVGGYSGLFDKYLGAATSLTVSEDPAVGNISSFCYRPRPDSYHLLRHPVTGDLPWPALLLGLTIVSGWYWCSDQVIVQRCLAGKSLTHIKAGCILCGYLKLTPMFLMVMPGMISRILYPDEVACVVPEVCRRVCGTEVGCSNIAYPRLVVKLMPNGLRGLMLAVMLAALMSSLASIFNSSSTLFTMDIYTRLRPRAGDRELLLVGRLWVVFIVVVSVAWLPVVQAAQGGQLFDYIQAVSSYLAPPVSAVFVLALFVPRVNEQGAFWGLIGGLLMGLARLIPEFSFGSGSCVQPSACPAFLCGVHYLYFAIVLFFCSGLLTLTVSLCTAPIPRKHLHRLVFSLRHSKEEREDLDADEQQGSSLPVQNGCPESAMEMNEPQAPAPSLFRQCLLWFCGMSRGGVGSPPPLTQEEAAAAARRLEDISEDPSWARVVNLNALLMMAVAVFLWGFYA

risk of inducing hypoglycaemia (background statement): low risk
inhibitor of human renal SGLT2 (human renal SGLT2): potent, highly selective
SMILES: CCOc1ccc(Cc2cc([C@@H]3O[C@H](CO)[C@@H](O)[C@H](O)[C@H]3O)ccc2Cl)cc1 [Dapagliflozin, dapagliflozin]
albuminuria (Shigiyama et al. 2017): reduce
arterial stiffness (Shigiyama et al. 2017): reduces
blood uric acid (Shigiyama et al. 2017): reduce
systolic blood pressure (Shigiyama et al. 2017): reduce
weight (Shigiyama et al. 2017): reduce
HbA1c (background statement): effectively lowers
